This is an account of results in patent US8283357B2, “Cycloalkylcarbamate benzamide aniline HDAC inhibitor compounds” (Gilead Sciences, Inc., priority 2009, dated 2012).

For one assay, the target named is HDAC-3 (Homo sapiens, UniProt O15379). In words: HDAC-3 inhibitory activity assay (fluorophore/quencher peptide substrate). The format is biochemical. The settings on record: enzyme/compound pre-incubated 2 hours at room temperature; reaction about 45 minutes. The procedure:
(§1) HDAC inhibitory activity of the compound of Example 1 was measured by an assay in which HDAC-1 or -3 were used as a target molecule. The test compound was suspended in and titrated in DMSO. It was then spotted into a 384-well test plate. The enzyme, HDAC-1 or -3, was diluted in assay buffer containing 25 mM Tris-HCl (pH 8.0), 137 mM NaCl, 2.7 mM KCl, and 0.01% Tween-20 and added to the pre-spotted compound. The enzyme/compound mix was incubated at room temperature for 2 hours. The peptide substrate containing a fluorophore/quencher pair was diluted in the same assay buffer and added to the compound/enzyme mix initiating the reaction. The reaction incubated at room temperature for about 45 minutes. A concentrated developer solution was diluted in the assay buffer, and added to the reaction. The reaction was incubated at room temperature for about 15 minutes and relative fluorescence was read on an instrument reader.

The next assay has as its target HDAC-1 (Homo sapiens, UniProt Q13547). In words: HDAC-1 inhibitory activity assay (fluorophore/quencher peptide substrate). The class given is biochemical. The note with it: enzyme/compound pre-incubated 2 hours at room temperature; reaction about 45 minutes. The protocol:
as §1

Sequence of HDAC-1 (Q13547 whole entry, species assumed): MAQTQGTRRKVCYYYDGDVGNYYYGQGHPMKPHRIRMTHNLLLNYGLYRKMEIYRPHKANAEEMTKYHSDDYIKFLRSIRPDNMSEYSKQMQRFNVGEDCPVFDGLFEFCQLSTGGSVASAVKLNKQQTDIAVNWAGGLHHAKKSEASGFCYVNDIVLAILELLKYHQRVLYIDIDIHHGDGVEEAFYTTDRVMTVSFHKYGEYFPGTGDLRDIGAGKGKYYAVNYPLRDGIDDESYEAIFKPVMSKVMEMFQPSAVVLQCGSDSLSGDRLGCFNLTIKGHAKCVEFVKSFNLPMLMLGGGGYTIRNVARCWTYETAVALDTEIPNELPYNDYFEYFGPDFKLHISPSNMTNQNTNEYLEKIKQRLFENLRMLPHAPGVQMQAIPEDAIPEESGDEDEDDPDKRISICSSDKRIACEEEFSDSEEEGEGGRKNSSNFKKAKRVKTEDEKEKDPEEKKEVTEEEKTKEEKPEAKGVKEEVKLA
Sequence of HDAC-3 (O15379 whole entry, species assumed): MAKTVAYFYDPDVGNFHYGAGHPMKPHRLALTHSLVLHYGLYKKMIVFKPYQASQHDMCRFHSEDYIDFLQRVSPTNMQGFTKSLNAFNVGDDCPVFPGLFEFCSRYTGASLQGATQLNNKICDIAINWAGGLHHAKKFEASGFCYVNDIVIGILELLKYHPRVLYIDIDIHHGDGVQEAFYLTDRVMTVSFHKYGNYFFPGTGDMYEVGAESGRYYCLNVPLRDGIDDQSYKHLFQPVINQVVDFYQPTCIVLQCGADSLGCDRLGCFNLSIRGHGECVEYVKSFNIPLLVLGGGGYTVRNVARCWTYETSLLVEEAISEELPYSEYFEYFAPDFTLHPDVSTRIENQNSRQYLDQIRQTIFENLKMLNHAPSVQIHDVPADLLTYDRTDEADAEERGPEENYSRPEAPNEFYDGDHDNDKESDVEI
Sequence of HDAC-3 (Q9Y618 395-489 partner limits assumed, species assumed): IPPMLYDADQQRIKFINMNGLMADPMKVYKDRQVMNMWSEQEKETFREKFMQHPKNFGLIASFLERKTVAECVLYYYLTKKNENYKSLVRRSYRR

By IC50 is commonly meant the concentration that gives 50% inhibition. Regarding `CC(C)(C)OC(=O)NC1(C(=O)Nc2ccc(C(=O)Nc3ccccc3N)cc2)CCCCC1` [Example 1, tert-Butyl-1-((4-((2-aminophenyl)carbamoyl)phenyl)carbamoyl)cyclohexyl carbamate], the IC50 was found to be 0.378 µM against HDAC-3 and 0.0447 µM at HDAC-1.
The matching figures for `CC(C)(C)OC(=O)NC1(C(=O)Nc2ccc(C(=O)Nc3ccccc3N)cc2)CC1` [Example 2, tert-Butyl-1-((4-((2-aminophenyl)carbamoyl)phenyl)carbamoyl)cyclopropyl carbamate]: 0.378 µM and 0.0628 µM.
The matching figures for `CC(C)(C)OC(=O)NC1(C(=O)Nc2ccc(C(=O)Nc3ccccc3N)cc2)CCCC1` [Example 3, tert-Butyl-1((4-((2-aminophenyl)carbamoyl)phenyl)carbamoyl)cyclopentylcarbamate]: 0.482 µM and 0.0609 µM.
With `Nc1ccccc1NC(=O)c1ccc(NC(=O)C2(NC(=O)OCc3ccccc3)CC2)cc1` [Example 4, Benzyl-1-((4-((2-aminophenyl)carbamoyl)phenyl)carbamoyl)cyclopropyl carbamate], the IC50 at HDAC-3 stood at 0.171 µM; against HDAC-1 it was 0.025 µM.
The matching figures for `Nc1ccc(-c2cccs2)cc1NC(=O)c1ccc(NC(=O)C2(NC(=O)OCc3ccccc3)CC2)cc1` [Example 5, Benzyl-1-((4-((2-amino-5-(thiophen-2-yl)phenyl)carbamoyl)phenyl)carbamoyl)cyclopropyl carbamate]: over 10 µM and 0.0034 µM.
For `Nc1ccc(-c2ccc(F)cc2)cc1NC(=O)c1ccc(NC(=O)C2(NC(=O)OCc3ccccc3)CC2)cc1` [Example 6, Benzyl-1-((4-((2-amino-5-(4-fluorophenyl)phenyl)carbamoyl)phenyl)carbamoyl)cyclopropyl carbamate], in that order: over 10 µM and 0.0074 µM.
For `Nc1ccc(-c2ccc(Cl)s2)cc1NC(=O)c1ccc(NC(=O)C2(NC(=O)OCc3ccccc3)CC2)cc1` [Example 7, Benzyl-1-((4-((2-amino-5-(5-chlorothiophen-2-yl)phenyl)carbamoyl)phenyl)carbamoyl)cyclopropylcarbamate], in that order: over 10 µM and 0.0267 µM.
`Nc1ccc(-c2cccs2)cc1NC(=O)c1ccc(NC(=O)C2(NC(=O)OCc3ccccc3)CC2)c(F)c1` [Example 8, Benzyl-1-((4-((2-amino-5-(thiophen-2-yl)phenyl)carbamoyl)-2-fluorophenyl)carbamoyl)cyclopropylcarbamate]: the half-maximal inhibitory concentration (IC50) against HDAC-3 is over 10 µM; against HDAC-1, 0.0056 µM.
Take `CN(C(=O)C1(NC(=O)OCc2ccccc2)CC1)c1ccc(C(=O)Nc2cc(-c3ccc(F)cc3)ccc2N)cc1` [Example 9, Benzyl-1-((4-((2-amino-5-(4-Fluorophenyl)phenyl)carbamoyl)phenyl)(methyl)carbamoyl)cyclopropylcarbamate]: the IC50 on HDAC-3 is 7.51 µM; against HDAC-1, 0.0082 µM.
On to `Nc1ccc(-c2ccc(F)cc2)cc1NC(=O)c1ccc(NC(=O)C2(N)CC2)cc1` [Example 10, N-(4-Amino-4′-fluorobiphenyl-3-yl)-4-(1-aminocyclopropanecarboxamido)benzamide], for which the results for the half-inhibitory concentration (IC50) against HDAC-3 and on HDAC-1 were over 10 µM and 0.0052 µM, respectively.
Regarding `CC(C)(C)NC(=O)NC1(C(=O)Nc2ccc(C(=O)Nc3cc(-c4ccc(F)cc4)ccc3N)cc2)CC1` [Example 11, N-(4-amino-4′-fluorobiphenyl-3-yl)-4-(1-(3-tert-butylureido)cyclopropanecarboxamido)benzamide], the IC50 was over 10 µM against HDAC-3 and 0.009 µM against HDAC-1.
